# pIC50: −log10 of the molar value. The source made the active and inactive calls. No rule for the calls is given here.
# Biological target: Intestinal-type alkaline phosphatase (Homo sapiens) (UniProt P09923)
# Experiment: human IAP enzyme inhibitors, SAR follow-up, mouse IAP inhibitor project, biochemical, set 2 (AID 588645)
# Conditions: human intestinal alkaline phosphatase enzymatic inhibition assay
# Intestinal-type alkaline phosphatase (Homo sapiens), sequence (P09923 whole entry, looked up): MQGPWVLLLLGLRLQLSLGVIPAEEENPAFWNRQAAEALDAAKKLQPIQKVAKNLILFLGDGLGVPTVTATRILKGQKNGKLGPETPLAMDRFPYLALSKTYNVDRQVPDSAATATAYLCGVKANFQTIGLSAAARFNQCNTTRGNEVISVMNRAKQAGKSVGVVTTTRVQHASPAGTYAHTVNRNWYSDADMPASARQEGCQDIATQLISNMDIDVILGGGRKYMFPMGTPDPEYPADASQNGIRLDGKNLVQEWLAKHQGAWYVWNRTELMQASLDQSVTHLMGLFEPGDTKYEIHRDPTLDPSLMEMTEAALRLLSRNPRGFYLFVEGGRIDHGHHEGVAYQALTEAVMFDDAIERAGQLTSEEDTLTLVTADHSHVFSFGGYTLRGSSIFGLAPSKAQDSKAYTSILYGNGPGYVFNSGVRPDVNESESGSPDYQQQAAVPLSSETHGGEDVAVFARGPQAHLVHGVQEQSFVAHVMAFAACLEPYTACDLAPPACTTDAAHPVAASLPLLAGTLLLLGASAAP
IC50,pIC50,SMILES
> 100 µM (inactive),,O=C(NCc1ccc2c(c1)OCO2)C1CCCN(S(=O)(=O)c2ccc3[nH]c(=O)oc3c2)C1 (stereo not given)
> 100 µM (inactive),,O=C(N/N=C/c1ccccc1F)c1ccc(O)cc1O
> 100 µM (inactive),,CCc1ccc(NC(=O)CCNS(=O)(=O)c2ccc3c(c2)oc(=O)n3C)cc1
> 100 µM (inactive),,N#Cc1ccc(NS(=O)(=O)c2ccc3[nH]c(=O)oc3c2)cc1
> 100 µM (inactive),,COc1ccc(OC)c(NC(=O)C2CCCN(S(=O)(=O)c3ccc4c(c3)oc(=O)n4C)C2)c1 (stereo not given)
> 100 µM (inactive),,Cc1ccc(CNC(=O)CCNS(=O)(=O)c2ccc3[nH]c(=O)oc3c2)cc1
> 100 µM (inactive),,O=C(CCCNS(=O)(=O)c1ccc2[nH]c(=O)oc2c1)NCc1ccc2c(c1)OCO2
> 100 µM (inactive),,COc1ccc(/C=N/NC(=O)c2cc(O)c(O)c(O)c2)c(OC)c1
> 100 µM (inactive),,Cc1ccc(C)c(NC(=O)CCNS(=O)(=O)c2ccc3c(c2)CCC3)c1
> 100 µM (inactive),,COc1ccc(CNC(=O)CCCNS(=O)(=O)c2ccc3[nH]c(=O)oc3c2)c(OC)c1
> 100 µM (inactive),,O=c1[nH]c2ccc(S(=O)(=O)NCc3ccc4c(c3)OCO4)cc2o1
> 100 µM (inactive),,COc1ccc(CNS(=O)(=O)c2ccc3[nH]c(=O)oc3c2)cc1
> 100 µM (inactive),,Cc1ccccc1CNC(=O)C1CCCN(S(=O)(=O)c2ccc3[nH]c(=O)oc3c2)C1 (stereo not given)
,4.19,O=C(N/N=C/c1cccc(Cl)c1Cl)c1cc(O)c(O)c(O)c1
> 100 µM (inactive),,CN(C)c1ccc(CNC(=O)C2CCCN(S(=O)(=O)c3ccc4[nH]c(=O)oc4c3)C2)cc1 (stereo not given)
> 100 µM (inactive),,CSc1cccc(NC(=O)C2CCCN(S(=O)(=O)c3ccc4c(c3)oc(=O)n4C)C2)c1 (stereo not given)
> 100 µM (inactive),,O=C(CCNS(=O)(=O)c1ccc2[nH]c(=O)oc2c1)NCc1ccc2c(c1)OCO2
> 100 µM (inactive),,O=c1[nH]c2ccc(S(=O)(=O)NCCc3ccc4c(c3)OCO4)cc2o1

IC50,pIC50,SMILES
> 100 µM (inactive),,COc1ccc(NS(=O)(=O)c2ccc3[nH]c(=O)oc3c2)cc1OC
> 100 µM (inactive),,COc1ccc(CNC(=O)CCNS(=O)(=O)c2ccc3c(c2)CCC3)c(OC)c1
> 100 µM (inactive),,COc1ccc(CNC(=O)CCNS(=O)(=O)c2ccc3ccccc3c2)c(OC)c1
> 100 µM (inactive),,O=C(CCNS(=O)(=O)c1ccc2[nH]c(=O)oc2c1)NCc1cccc(Cl)c1
> 100 µM (inactive),,Cc1ccc(C)c(NC(=O)CCNS(=O)(=O)c2ccc3ccccc3c2)c1
> 100 µM (inactive),,COc1ccc(CNC(=O)CCNS(=O)(=O)c2ccc3[nH]c(=O)oc3c2)c(OC)c1
> 100 µM (inactive),,Cc1ccc(NC(=O)CCNS(=O)(=O)c2ccc3c(c2)oc(=O)n3C)c(C)c1
> 100 µM (inactive),,O=C(CCNS(=O)(=O)c1ccc2[nH]c(=O)oc2c1)NCCc1ccc2c(c1)OCO2
> 100 µM (inactive),,O=C(CCS(=O)(=O)Nc1ccc2[nH]c(=O)oc2c1)NCc1cccc(Cl)c1
> 100 µM (inactive),,O=C(CCNS(=O)(=O)c1ccc2[nH]c(=O)oc2c1)NCc1ccc(F)cc1
> 100 µM (inactive),,O=C(CCCNS(=O)(=O)c1ccc2[nH]c(=O)oc2c1)NCCc1ccc(O)cc1
> 100 µM (inactive),,O=C(NCc1ccccc1)C1CCCN(S(=O)(=O)c2ccc3[nH]c(=O)oc3c2)C1 (stereo not given)
> 100 µM (inactive),,CC(=NNC(=O)c1ccccc1OCCOc1ccccc1)c1ccccc1F
> 100 µM (inactive),,O=C(CCNS(=O)(=O)c1ccc2[nH]c(=O)oc2c1)NCc1ccc(Cl)cc1
> 100 µM (inactive),,O=C(CCNS(=O)(=O)c1ccc2[nH]c(=O)oc2c1)NCCc1ccc(O)cc1
> 100 µM (inactive),,Cc1cc(NC(=O)CCNS(=O)(=O)c2ccc3[nH]c(=O)oc3c2)ccc1Br
> 100 µM (inactive),,COc1cccc(NC(=O)CCNS(=O)(=O)c2ccc3c(c2)oc(=O)n3C)c1
